Assays:
S. pneumoniae cells = experiment: 3D-SIM imaging of lactone probe labeled cells; assay type: cell-based; conditions: for late divisional cells showing central septal labeling: untreated, ≈41 cells examined
Protocol: Cells from an overnight culture were diluted to OD620 0.02 in 2 ml of fresh BHI prewarmed to 37° C. and incubated at 37° C. in an atmosphere of 5% CO2. At OD620 0.2, 1.5 ml of culture was added to a microfuge tube and centrifuged at room temperature for 5 min at 16000×g. The supernatant was discarded, the pellet was resuspended in 1 ml room temperature PBS, and the culture was centrifuged a second time. The supernatant was discarded and the pellet was resuspended in either 50 μl of PBS with 5 μg mL^−1 7FL or 100 μl PBS with 5 μg mL^−1 8T. The cells were incubated for 20 min at room temperature in the dark. After incubation the cells were spun and washed with 1 ml of PBS (7FL) or 1 ml of PBS containing 50 mM glucose (8T). The cells were spun a second time and washed with 200 μl of PBS (7FL) or 200 μl of PBS with 50 mM glucose (8T), and finally spun a third time and resuspended in 100 μl of cold (4° C.) GTE buffer (50 mM glucose, 20 mM Tris pH 7.5, 1 mM EDTA). The cells were spun down at 4° C., the supernatant was discarded, and the pellet was resuspended in 15 μl of Vectashield Hardest Antifade (Vector Labs) and kept on ice. 1.2 μl of cells in antifade was pipetted onto a clean coverslip, applied to a slide, and imaged via 3D-SIM. 3D-SIM was performed using the OMX 3D-SIM super-resolution system located in the Indiana University Bloomington Light Microscopy Imaging Center (www.indiana.edu/˜lmic/microscopes/index.html#OMX). The system used is equipped with four Photometrics Cascade II EMCCD cameras that allow simultaneous imaging of up to four colors, and is controlled by DV-OMX software, with image processing by Applied Precision softWoRx 6.0.0 software. Exposure times and % T settings for DAPI, Alexa 488, and Alexa 568 images were 5 ms and 100% for all three channels.
For pre-treatment with methicillin followed by lactone probe labeling, duplicate 2 ml cultures of each strain were created and incubated as described above. At OD620 0.12, methicillin was added to a final concentration of 0.1 μg mL^−1 to one culture for each strain, and the strains were placed back in the incubator. After 20 min, all cultures were harvested, labeled, and imaged as described above.
For labeling of cells with both lactone probes, the following changes were made: After a 20 min incubation with 7FL, the cells were spun down and washed once in 1 ml of PBS. The cells were spun again and resuspended in 100 μl of 8T in PBS at 5 μg mL^−1. The cells were incubated for 20 min at room temperature in the dark, and then washed and imaged as described above for 8T labeling.

PBP2x and PBP2b = experiment: Dual-labeling experiments, 7FL followed by 8T; assay type: cell-based, S. pneumoniae; conditions: both 5 μg/mL for 20 minutes
Protocol: S. pneumoniae E193 (Δpbp1b) cells were grown in BHI broth at 37° C. in an atmosphere of 5% CO2 to reach an OD620 of 0.2-0.25. Cells from 1.5 ml of culture were harvested by centrifugation (16,100×g for 2 min at RT) and washed with 1 ml of PBS, pH 7.4. Cell pellets were resuspended in 50 μl of PBS containing 5 μg/ml lactone-L-Phe-FL (7FL) and incubated at RT for 20 min. Cells were then washed with 1 ml PBS prior to suspension in 50 μl of 5 μg/ml solution of Lac-D-Phe-TAMRA (8T) in PBS. After incubation for 20 min at RT, cells were washed and resuspended in 100 μl of PBS containing 10 mg/ml of lysozyme. Cell lysis and sample preparation for SDS PAGE was followed as described earlier.

Row | Substance | late divisional cells showing central septal labeling (S. pneumoniae cells; wild-type) [%] | late divisional cells showing central septal labeling (S. pneumoniae cells; Δpbp1b) [%] | PBP visualized in dual labeling (PBP2x and PBP2b) | cells with labeling excluded from the center of the division site (S. pneumoniae cells; after pre-treatment with 7FL, wild-type and Δpbp1b cells) [%]
1 | (2S,3R)-β-lactone-L-Phe-fluorescein [Probe 7FL] | 85 | 73 | PBP2x | –
2 | (2S, 3R)-β-lactone-D-Phe-TAMRA [Probe 8T] | 80.5 | 75.6 | PBP2b | > 83

Reference: patent publication US10822318B2, “Lactone-based probes and methods of use thereof” (REGENTS OF THE UNIVERSITY OF MINNESOTA, priority 2017, dated 2020)
